Source: ChEMBL document CHEMBL6182854, “Design, synthesis and biological evaluation of WEE1 degraders via HSP90-mediated targeting chimeras for target therapy of acute myeloid leukemia” (Eur J Med Chem, 2025)
Active and inactive are the calls of the source. The calls are words filed in the database; no cut-off is given here.

Assays:
MV4-11 [1] = assay: Antiproliferative activity against human MV4-11 cells assessed as cell viability incubated for 72 hrs by CCK-8 assay; format: functional, cell-based; conditions: MV4-11, 72 h
MV4-11 [2] = assay: Induction of cell cycle arrest in human MV4-11 cells assessed as accumulation of cells at G2/M phase incubated for 72 hrs by PI staining based flow cytometry; format: functional; conditions: dose 30.0 µM
[3] = system: Primary acute myeloid leukemic cell; assay: Antitumor activity against patient derived human Primary acute myeloid leukemic cell xenografted in female NOD/SCID mouse assessed as decrease in huCD45+ cells in bone marrow at 5 mg/kg administered via tail vein and measured after 4 weeks by flow cytometric analysis; format: functional, organism-based
[4] = system: Primary acute myeloid leukemic cell; assay: Antitumor activity against patient derived human Primary acute myeloid leukemic cell xenografted in female NOD/SCID mouse assessed as decrease in huCD45+ cells in bone marrow at 5 mg/kg administered via tail vein and measured after 4 weeks in presence of AZD1775 by flow cytometric analysis; format: functional, organism-based
[5] = system: Primary acute myeloid leukemic cell; assay: Antitumor activity against patient derived human Primary acute myeloid leukemic cell xenografted in female NOD/SCID mouse assessed as decrease in huCD45+ cells in bone marrow at 3 mg/kg administered via tail vein in presence of AZD1775 and measured after 4 weeks by flow cytometric analysis; format: functional, organism-based
[6] = system: Primary acute myeloid leukemic cell; assay: Antitumor activity against patient derived human Primary acute myeloid leukemic cell xenografted in female NOD/SCID mouse assessed as decrease in huCD45+ cells in spleen at 3 mg/kg administered via tail vein and measured after 4 weeks by flow cytometric analysis; format: functional, organism-based
[7] = Toxicity in male BALB/C mouse assessed as myelosuppression by measuring platelet level at 10 mg/kg administered via tail vein and measured on day 3; format: organism-based; conditions: in vivo, iv, 72 h, time 3 day
[8] = Toxicity in female NOD/SCID mouse xenografted with patient derived human Primary acute myeloid leukemic cell assessed as heart damage at 3 mg/kg administered via tail vein by H and E staining based optical microscopic analysis; format: organism-based; conditions: in vivo, iv
[9] = Toxicity in female NOD/SCID mouse xenografted with patient derived human Primary acute myeloid leukemic cell assessed as lung damage at 3 mg/kg administered via tail vein by H and E staining based optical microscopic analysis; format: organism-based; conditions: in vivo, iv
[10] = Toxicity in female NOD/SCID mouse xenografted with patient derived human Primary acute myeloid leukemic cell assessed as liver damage at 3 mg/kg administered via tail vein by H and E staining based optical microscopic analysis; format: organism-based; conditions: in vivo, iv
[11] = Cytotoxicity against human PBMC cells assessed as reduction in cell viability up to 1000 nM incubated for 72 hrs by CCK-8 assay; format: toxicity, cell-based; conditions: 1 µM
[12] = Toxicity in female NOD/SCID mouse xenografted with patient derived human Primary acute myeloid leukemic cell assessed as spleen damage at 3 mg/kg administered via tail vein by H and E staining based optical microscopic analysis; format: organism-based; conditions: in vivo, iv
MV4-11 [13] = assay: HEMTAC activity at HSP90/WEE1 in human MV4-11 cells assessed as induction of WEE1 degradation at 0.1 uM incubated for 12 hrs by Western blotting analysis; format: cell-based
[14] = Toxicity in female NOD/SCID mouse xenografted with patient derived human Primary acute myeloid leukemic cell assessed as kidney damage at 10 mg/kg administered via tail vein by H and E staining based optical microscopic analysis; format: organism-based; conditions: in vivo, iv
MV4-11 [15] = assay: HEMTAC activity against HSP90/WEE1 in human MV4-11 cells assessed as induction of WEE1 degradation at 10 uM incubated for 12 hrs by Western blotting analysis; format: cell-based
[16] = system: Primary acute myeloid leukemic cell; assay: Antitumor activity against patient derived human Primary acute myeloid leukemic cell xenografted in female NOD/SCID mouse assessed as reduction in splenomegaly at 3 mg/kg administered via tail vein and measured after 4 weeks; format: functional, organism-based
MV4-11 [17] = assay: HEMTAC activity against HSP90/AKT in human MV4-11 cells assessed as induction of AKT degradation at 0.1 uM incubated for 12 hrs by Western blotting analysis; format: cell-based
[18] = Toxicity in male BALB/C mouse assessed as myelosuppression by measuring neutrophil level at 10 mg/kg administered via tail vein and measured on day 3; format: organism-based; conditions: in vivo, iv, 72 h, time 3 day
[19] = Toxicity in female NOD/SCID mouse xenografted with patient derived human Primary acute myeloid leukemic cell assessed as increase in body weight at 3 mg/kg administered via tail vein and measured after 4 weeks; format: organism-based; conditions: in vivo, iv, 672 h
[20] = target: Cyclin-dependent kinase 1 (Homo sapiens) (UniProt P06493); assay: Inhibition of CDK1 phosphorylation in human MV4-11 cells; format: cell-based
Sequence of Cyclin-dependent kinase 1 (Homo sapiens) (P06493 whole entry, looked up): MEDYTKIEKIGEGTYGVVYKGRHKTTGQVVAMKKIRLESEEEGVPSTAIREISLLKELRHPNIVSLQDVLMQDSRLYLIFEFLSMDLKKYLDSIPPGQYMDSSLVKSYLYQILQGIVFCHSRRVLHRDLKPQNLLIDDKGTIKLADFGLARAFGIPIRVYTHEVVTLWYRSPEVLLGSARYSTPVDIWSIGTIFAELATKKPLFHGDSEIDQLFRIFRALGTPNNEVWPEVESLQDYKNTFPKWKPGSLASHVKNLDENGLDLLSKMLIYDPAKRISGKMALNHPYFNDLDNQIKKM

MV4-11 [21] = assay: Induction of cell cycle arrest in human MV4-11 cells assessed as accumulation of cells at G2/M phase at 30 nM incubated for 72 hrs by PI staining based flow cytometry; format: functional
[22] = Toxicity in male BALB/C mouse assessed as myelosuppression by measuring leukocytes level at 10 mg/kg administered via tail vein and measured on day 3; format: organism-based; conditions: in vivo, iv, 72 h, time 3 day
[23] = target: Heat shock protein HSP 90-alpha (Homo sapiens, UniProt P07900); assay: Inhibition of N-terminal HSP90alpha (unknown origin) ATPase activity incubated for 3 hrs by fluorescence polarization assay
MV4-11 [24] = assay: Upregulation of WEE1 mRNA expression in human MV4-11 cells incubated for 12 hrs by qRT-PCR analysis; format: functional, cell-based; conditions: dose 1-10 µM
[25] = Antitumor activity against patient derived human Primary acute myeloid leukemic cell xenografted in female NOD/SCID mouse assessed as decrease in huCD45+ cells in bone marrow at 10 mg/kg administered via tail vein and measured after 4 weeks by flow cytometric analysis relative to control; format: functional; parameters: scale not given: the % may be the effect or the level left
[26] = Antiproliferative activity against patient derived human Primary acute myeloid leukemic cell assessed as inhibition of cell growth incubated for 72 hrs by CCK-8 assay; format: functional, cell-based
[27] = system: Primary acute myeloid leukemic cell; assay: Antitumor activity against patient derived human Primary acute myeloid leukemic cell xenografted in female NOD/SCID mouse assessed as reduction in splenomegaly at 10 mg/kg administered via tail vein and measured after 4 weeks; format: functional, organism-based
[28] = Toxicity in female NOD/SCID mouse xenografted with patient derived human Primary acute myeloid leukemic cell assessed as liver damage at 10 mg/kg administered via tail vein by H and E staining based optical microscopic analysis; format: organism-based; conditions: in vivo, iv
[29] = Toxicity in female NOD/SCID mouse xenografted with patient derived human Primary acute myeloid leukemic cell assessed as lung damage at 10 mg/kg administered via tail vein by H and E staining based optical microscopic analysis; format: organism-based; conditions: in vivo, iv
[30] = system: Primary acute myeloid leukemic cell; assay: Antitumor activity against patient derived human Primary acute myeloid leukemic cell xenografted in female NOD/SCID mouse assessed as decrease in huCD45+ cells in spleen at 10 mg/kg administered via tail vein and measured after 4 weeks by flow cytometric analysis; format: functional, organism-based
[31] = Toxicity in female NOD/SCID mouse xenografted with patient derived human Primary acute myeloid leukemic cell assessed as spleen damage at 10 mg/kg administered via tail vein by H and E staining based optical microscopic analysis; format: organism-based; conditions: in vivo, iv
[32] = Toxicity in female NOD/SCID mouse xenografted with patient derived human Primary acute myeloid leukemic cell assessed as increase in body weight at 10 mg/kg administered via tail vein and measured after 4 weeks; format: organism-based; conditions: in vivo, iv, 672 h
[33] = Toxicity in female NOD/SCID mouse xenografted with patient derived human Primary acute myeloid leukemic cell assessed as heart damage at 10 mg/kg administered via tail vein by H and E staining based optical microscopic analysis; format: organism-based; conditions: in vivo, iv
[34] = system: Primary acute myeloid leukemic cell; assay: Antitumor activity against patient derived human Primary acute myeloid leukemic cell xenografted in female NOD/SCID mouse assessed as decrease in huCD45+ cells in bone marrow at 5 mg/kg administered via tail vein and measured after 4 weeks in presence of STA9090 by flow cytometric analysis; format: functional, organism-based
[35] = system: Primary acute myeloid leukemic cell; assay: Antitumor activity against patient derived human Primary acute myeloid leukemic cell xenografted in female NOD/SCID mouse assessed as decrease in huCD45+ cells in bone marrow at 3 mg/kg administered via tail vein in presence of STA9090 and measured after 4 weeks by flow cytometric analysis; format: functional, organism-based
MV4-11 [36] = assay: Induction of cell cycle arrest in human MV4-11 cells assessed as accumulation of cells at G2/M phase at 100 nM incubated for 72 hrs by PI staining based flow cytometry; format: functional

CC(C)c1cc(-c2n[nH]c(=O)n2-c2ccc3c(ccn3C)c2)c(O)cc1O [GANETESPIB]
IC50 (MV4-11 [1]): 1.53 nM
Activity (MV4-11 [2]): Active
Activity [3]: inactive
Activity [4]: inactive
Activity [5]: inactive

C=CCn1c(=O)c2cnc(Nc3ccc(N4CCN(CCCCNC(=O)CN5CCN(Cc6ccc(-n7c(C(=O)NCC)nnc7-c7cc(C(C)C)c(O)cc7O)cc6)CC5)CC4)cc3)nc2n1-c1cccc(C(C)(C)O)n1
Activity [6]: Active
Activity [7]: Non-toxic
Activity [8]: Non-toxic
Activity (MV4-11 [2]): Dose-dependent-effect
Activity [9]: Non-toxic
Activity [10]: Non-toxic
Activity [11]: Non-toxic
Activity [12]: Non-toxic
Activity (MV4-11 [13]): Active
Activity [14]: Non-toxic
Activity (MV4-11 [15]): Active
Activity [16]: Active
Activity (MV4-11 [17]): Minimal_effect
Activity [18]: Non-toxic
Activity [19]: Non-toxic
inhibition [20]: Active
Activity (MV4-11 [21]): Active
Activity [22]: Non-toxic
IC50 [23]: 16.8 nM
Activity (MV4-11 [24]): Active

C=CCn1c(=O)c2cnc(Nc3ccc(N4CCN(CCNC(=O)CCC(=O)Nc5ccc6c(c5)CCN6C(=O)c5cc(C(C)C)c(O)cc5O)CC4)cc3)nc2n1-c1cccc(C(C)(C)O)n1
IC50 (MV4-11 [1]): 13.1 nM
Activity (MV4-11 [15]): Active

C=CCn1c(=O)c2cnc(Nc3ccc(N4CCN(CCCCNC(=O)c5noc(-c6cc(C(C)C)c(O)cc6O)c5-c5ccc(CN6CCOCC6)cc5)CC4)cc3)nc2n1-c1cccc(C(C)(C)O)n1
IC50 (MV4-11 [1]): 45 nM
Activity (MV4-11 [15]): Active

C=CCn1c(=O)c2cnc(Nc3ccc(N4CCN(CCCCNC(=O)CCC(=O)Nc5ccc6c(c5)CCN6C(=O)c5cc(C(C)C)c(O)cc5O)CC4)cc3)nc2n1-c1cccc(C(C)(C)O)n1
IC50 (MV4-11 [1]): 153 nM
Activity (MV4-11 [15]): Active

CC(C)c1cc(C(=O)N2Cc3ccc(CN4CCN(C)CC4)cc3C2)c(O)cc1O [ONALESPIB]
IC50 (MV4-11 [1]): 6.13 nM
IC50 [23]: 9.89 nM

CCNC(=O)c1noc(-c2cc(C(C)C)c(O)cc2O)c1-c1ccc(CN2CCOCC2)cc1 [LUMINESPIB]
IC50 (MV4-11 [1]): 1.98 nM
Activity (MV4-11 [2]): Active

C=CCn1c(=O)c2cnc(Nc3ccc(N4CCN(CCCNC(=O)c5noc(-c6cc(C(C)C)c(O)cc6O)c5-c5ccc(CN6CCOCC6)cc5)CC4)cc3)nc2n1-c1cccc(C(C)(C)O)n1
IC50 (MV4-11 [1]): 8.03 nM
Activity [7]: Non-toxic
Activity [25]: >70%
IC50 [26]: 40.5 nM
Activity (MV4-11 [2]): Dose-dependent-effect
Activity [9]: Non-toxic
Activity [11]: Non-toxic
Activity [27]: Active
Activity (MV4-11 [13]): Active
Activity (MV4-11 [15]): Active
Activity (MV4-11 [17]): Minimal_effect
Activity [28]: Non-toxic
inhibition [20]: Active
Activity [29]: Non-toxic
Activity [30]: Active
Activity [31]: Non-toxic
Activity [32]: Non-toxic
Activity (MV4-11 [21]): Active
Activity [33]: Non-toxic
IC50 [23]: 13.9 nM
Activity (MV4-11 [24]): Active

C=CCn1c(=O)c2cnc(Nc3ccc(N4CCN(CCCCCNC(=O)c5noc(-c6cc(C(C)C)c(O)cc6O)c5-c5ccc(CN6CCOCC6)cc5)CC4)cc3)nc2n1-c1cccc(C(C)(C)O)n1
IC50 (MV4-11 [1]): 24.2 nM
Activity (MV4-11 [15]): Active

C=CCn1c(=O)c2cnc(Nc3ccc(N4CCN(CCNC(=O)c5noc(-c6cc(C(C)C)c(O)cc6O)c5-c5ccc(CN6CCOCC6)cc5)CC4)cc3)nc2n1-c1cccc(C(C)(C)O)n1
IC50 (MV4-11 [1]): 99.2 nM
Activity (MV4-11 [15]): Active

C=CCn1c(=O)c2cnc(Nc3ccc(N4CCN(CCCNC(=O)CCC(=O)Nc5ccc6c(c5)CCN6C(=O)c5cc(C(C)C)c(O)cc5O)CC4)cc3)nc2n1-c1cccc(C(C)(C)O)n1
IC50 (MV4-11 [1]): 47.6 nM
Activity (MV4-11 [15]): Active
IC50 [23]: 18.7 nM

C=CCn1c(=O)c2cnc(Nc3ccc(N4CCN(C)CC4)cc3)nc2n1-c1cccc(C(C)(C)O)n1 [ADAVOSERTIB]
Activity [34]: inactive
IC50 (MV4-11 [1]): 67.5 nM
Activity [35]: inactive
Activity [3]: inactive
Activity (MV4-11 [15]): inactive
Activity (MV4-11 [36]): Active
Activity (MV4-11 [24]): inactive

C=CCn1c(=O)c2cnc(Nc3ccc(N4CCN(CCCCCNC(=O)CN5CCN(Cc6ccc(-n7c(C(=O)NCC)nnc7-c7cc(C(C)C)c(O)cc7O)cc6)CC5)CC4)cc3)nc2n1-c1cccc(C(C)(C)O)n1
IC50 (MV4-11 [1]): 9.66 nM
Activity (MV4-11 [15]): Active

C=CCn1c(=O)c2cnc(Nc3ccc(N4CCN(CCCCCNC(=O)CCC(=O)Nc5ccc6c(c5)CCN6C(=O)c5cc(C(C)C)c(O)cc5O)CC4)cc3)nc2n1-c1cccc(C(C)(C)O)n1
IC50 (MV4-11 [1]): 38.4 nM
Activity (MV4-11 [15]): Active

C=CCn1c(=O)c2cnc(Nc3ccc(N4CCN(CCNC(=O)CN5CCN(Cc6ccc(-n7c(C(=O)NCC)nnc7-c7cc(C(C)C)c(O)cc7O)cc6)CC5)CC4)cc3)nc2n1-c1cccc(C(C)(C)O)n1
IC50 (MV4-11 [1]): 13.1 nM
Activity (MV4-11 [15]): Active
